Test [1] concerns DU145 human prostate tumor cells. As to the kind of experiment: Inhibition of cell proliferation, crystal violet staining. Conditions: DU145, 4 days incubation. Type of test: cell-based. The method, then: (§1) Cell cultures of the following cell lines were prepared in 96-well microtiter plates: • 1. MaTu/ADR multidrug-resistant human breast tumor cells (Epo GmbH Berlin), 5000 cells/well. • 2. HCT116 human colon tumor cells (ATCC CCL-247), 3000 cells/well. • 3. NCl-H460 human non-small-cell lung cancer cells (ATCC HTB-177), 3000 cells/well. • 4. DU145 human prostate tumor cells (ATCC HTB-81), 5000 cells/well. • 5. HMVEC human primary dermal microvascular endothelial cells, 7500 cells/well.
(§2) After 24 hours of incubation in a cell culture incubator at 37° C., the cells of a microtiter plate were stained with crystal violet (reference plate), while the cells in the test plates were incubated for 4 days with the test substances in the concentrations […], as well as with the DMSO solvent by itself (solvent control). The cell proliferation was determined by staining cells with crystal violet. The extinction of the crystal violet was determined by photometry at 595 nm. The percentage of the change in the cell number in the test plates was determined after the extinction values were normalized to the reference plate (0%) and to the solvent control (100%). The semi-maximal inhibition of the cell growth (IC50) was determined as the substance concentration, in which 50% of the cell number of the solvent controls were present.

In test [2] the test system is MaTu/ADR multidrug-resistant human breast tumor cells. The description is as above. Type of test: cell-based. Conditions: 4 days incubation. The method, then: as §1, §2
For test [3], the system named is HCT116 human colon tumor cells. The description is as above. Type of test: cell-based. Conditions: HCT116, 4 days incubation. The method, then:
as §1, §2

Test [4] relates to NCl-H460 human non-small-cell lung cancer cells. The test is described as above. Type of test: cell-based. Conditions: NCl-H460, 4 days incubation. The method, then: as §1, §2
Test [5] has as its system HMVEC human primary dermal microvascular endothelial cells. The description is as above. The settings on record: 4 days incubation. Type of test: cell-based. The method, then:
as §1, §2

For test [6], the target named is T1, microtubular protein (tubulin) purified from pig brains (Sus scrofa, UniProt P02550+P02554).
T1 construct: microtubular protein was purified from pig brains via cyclic assembling/disassembling; from tissue; host or cells: pig brain
T1 sequence (P02550 whole entry): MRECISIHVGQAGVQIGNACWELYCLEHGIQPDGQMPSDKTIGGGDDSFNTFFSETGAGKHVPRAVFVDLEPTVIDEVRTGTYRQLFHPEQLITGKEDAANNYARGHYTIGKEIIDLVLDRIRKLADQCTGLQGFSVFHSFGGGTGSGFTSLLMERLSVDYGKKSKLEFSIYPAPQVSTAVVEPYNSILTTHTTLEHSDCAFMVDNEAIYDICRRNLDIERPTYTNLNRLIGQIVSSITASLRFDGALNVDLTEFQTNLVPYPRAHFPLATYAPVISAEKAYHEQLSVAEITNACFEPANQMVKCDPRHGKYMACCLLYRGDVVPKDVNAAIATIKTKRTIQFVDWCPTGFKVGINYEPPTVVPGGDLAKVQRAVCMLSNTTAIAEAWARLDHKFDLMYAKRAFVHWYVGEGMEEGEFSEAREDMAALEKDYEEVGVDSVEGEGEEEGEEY
T1 sequence (P02554 whole entry): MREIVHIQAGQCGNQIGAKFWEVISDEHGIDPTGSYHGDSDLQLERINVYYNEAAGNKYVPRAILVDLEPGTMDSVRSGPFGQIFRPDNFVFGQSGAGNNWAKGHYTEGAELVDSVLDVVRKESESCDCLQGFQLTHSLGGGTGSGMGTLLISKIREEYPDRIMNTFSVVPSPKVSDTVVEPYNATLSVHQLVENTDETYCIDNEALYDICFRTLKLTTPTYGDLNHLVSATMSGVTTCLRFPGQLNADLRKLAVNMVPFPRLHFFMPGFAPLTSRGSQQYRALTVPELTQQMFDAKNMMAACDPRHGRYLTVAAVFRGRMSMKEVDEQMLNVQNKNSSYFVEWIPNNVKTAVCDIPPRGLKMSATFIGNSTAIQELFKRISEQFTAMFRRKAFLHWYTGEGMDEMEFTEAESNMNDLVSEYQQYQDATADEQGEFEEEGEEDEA
The test can be described thus: Inhibition of tubulin polymerization (turbidimetry at 340 nm). Type of test: biochemical. The settings on record: pig brain microtubular protein 1 mg/ml, 0.25 mmol GTP, 37° C.
Procedure: The in-vitro testing of the tubulin polymerization influence was performed as follows:
The buffer system used had the following composition: 20 mmol of PIPES (1,4-piperazine-diethane-sulfonic acid, pKa 6.8), 80 mmol of NaCl, 0.5 mmol of MgCl2, 1 mmol of EGTA (ethylene glycol-bis-(2-aminoethylene)-tetraacetic acid).
For active ingredient testing, protein concentrations of 1 mg/ml (about 10^−5 mmol of tubulin) were used. […] The assembling of microtubuli was carried out in the presence of 0.25 mmol of GTP and heating the samples to 37° C.
The microtubulus formation was examined by means of turbidimetry at a wavelength of 340 nm.
Testing of the active ingredients was carried out by their addition at the beginning of the assembling or in the state of equilibrium. Deviations of turbidity curves from the control characterize its activity. To monitor action and to evaluate the measured turbidity values, a transmission electron microscopic study (CEM 902 A, Zeiss/Oberkochen) of the assemblates was always performed after negative staining with 1% aqueous uranyl acetate.

Regarding `COc1cc2c(cc1O)CC[C@@H]1[C@@H]2CC[C@]2(C)[C@@H](O)CC[C@@H]12` [2-Methoxyestradiol, reference compound], the IC50 in test [1] is 1900 nM; in test [2], 200 nM; in test [3] it was 1100 nM; in test [4], 1800 nM; in test [5], 2200 nM; in test [6], 2700 nM.

For the compound `C=C1CC[C@H]2[C@@H]3CC(=NO)c4cc(OS(N)(=O)=O)c(OC)cc4[C@H]3CC[C@]12C` [(7), 2-Methoxy-17(20)-methylene-6-oximino-estra-1,3,5(10)-trien-3-yl Sulfamate], the IC50 in test [1] worked out at 550 nM; in test [2] it was 130 nM; in test [3], 500 nM; in test [4], 500 nM; in test [5], 130 nM.

As to `CCc1cc2c(cc1OS(N)(=O)=O)CC[C@@H]1[C@@H]2CC[C@]2(C)[C@@H](OC)CC[C@@H]12` [(3), 2-Ethyl-17β-methoxy-estra-1,3,5(10)-trien-3-yl sulfamate], the IC50 turned out to be 180 nM in test [1] (Homo sapiens, DU-145, 96 h); 120 nM in test [2] (Homo sapiens, 96 h); 180 nM in test [3] (Homo sapiens, HCT-116, 96 h); 180 nM in test [4] (Homo sapiens, 96 h); 160 nM in test [5] (Homo sapiens, 96 h); 1400 nM in test [6].

Take `C=C1CC[C@H]2[C@@H]3CCc4cc(OS(N)(=O)=O)c(OC)cc4[C@H]3CC[C@]12C` [(4), 2-Methoxy-17(20)-methylene-estra-1,3,5(10)-trien-3-yl Sulfamate]: the IC50 was 180 nM in test [1] (Homo sapiens, DU-145, 96 h); below 100 nM in test [2] (Homo sapiens, 96 h); 180 nM in test [3] (Homo sapiens, HCT-116, 96 h); 180 nM in test [4] (Homo sapiens, 96 h); 160 nM in test [5] (Homo sapiens, 96 h); 1400 nM in test [6].

As for `COc1cc2c(cc1OS(N)(=O)=O)CC[C@@H]1[C@@H]2CC[C@]2(C)CCC[C@@H]12` [(1), 2-Methoxy-estra-1,3,5(10)-trien-3-yl Sulfamate], the IC50 in test [1] (Homo sapiens, DU-145, 96 h) is 500 nM; in test [2] (Homo sapiens, 96 h), 110 nM; in test [3] (Homo sapiens, HCT-116, 96 h), 400 nM; in test [4] (Homo sapiens, 96 h), 400 nM; in test [5] (Homo sapiens, 96 h) it was below 100 nM; in test [6], 670 nM.

Consider `COc1cc2c(cc1OS(N)(=O)=O)CC[C@@H]1[C@@H]2CC[C@]2(C)[C@@H](CO)CC[C@@H]12` [(11), 17β-Hydroxymethyl-2-methoxy-estra-1,3,5(10)-trien-3-yl Sulfamate], for which the IC50 was 200 nM in test [1] (Homo sapiens, DU-145, 96 h); below 100 nM in test [2] (Homo sapiens, 96 h); 180 nM in test [3] (Homo sapiens, HCT-116, 96 h); 180 nM in test [4] (Homo sapiens, 96 h); below 100 nM in test [5] (Homo sapiens, 96 h).

For the compound `COc1cc2c(cc1OS(N)(=O)=O)CC[C@@H]1[C@@H]2CC[C@]2(C)[C@@H](C(F)F)CC[C@@H]12` [(9), 17β-Difluoromethyl-2-methoxy-estra-1,3,5(10)-trien-3-yl Sulfamate], the IC50 in test [1] (Homo sapiens, DU-145, 96 h) was 400 nM; in test [2] (Homo sapiens, 96 h), 110 nM; in test [3] (Homo sapiens, HCT-116, 96 h) it was 300 nM; in test [4] (Homo sapiens, 96 h) it was 220 nM; in test [5] (Homo sapiens, 96 h) it was 200 nM; in test [6] it was 1500 nM.

In the case of `CC(=O)O[C@H]1C(=O)[C@@]2(C)[C@H]([C@H](OC(=O)c3ccccc3)[C@]3(O)C[C@H](OC(=O)[C@H](O)[C@@H](NC(=O)c4ccccc4)c4ccccc4)C(C)=C1C3(C)C)[C@]1(OC(C)=O)CO[C@@H]1C[C@@H]2O` [Taxol, reference compound], the IC50 in test [1] (Homo sapiens, DU-145, 96 h) is 4 nM; in test [2] (Homo sapiens, 96 h) it was 400 nM; in test [3] (Homo sapiens, HCT-116, 96 h), 4 nM; in test [4] (Homo sapiens, 96 h) it was 4 nM; in test [5] (Homo sapiens, 96 h), 4 nM.

Turning to `COc1cc2c(cc1OS(N)(=O)=O)CC[C@@H]1[C@@H]2CC[C@]2(C)[C@@H](C)CC[C@@H]12` [(5), 2-methoxy-17β-methyl-estra-1,3,5(10)-trien-3-yl sulfamate], the IC50 in test [6] came to 1300 nM.

Regarding `COc1cc2c(cc1OS(N)(=O)=O)CC[C@@H]1[C@@H]2CC[C@]2(C)C(=C(F)F)CC[C@@H]12` [(8), 17(20)-Difluoromethylene-2-methoxy-estra-1,3,5(10)-trien-3-yl Sulfamate], the IC50 in test [1] (Homo sapiens, DU-145, 96 h) worked out at 500 nM; in test [2] (Homo sapiens, 96 h), 170 nM; in test [3] (Homo sapiens, HCT-116, 96 h), 300 nM; in test [4] (Homo sapiens, 96 h), 220 nM; in test [5] (Homo sapiens, 96 h), 200 nM; in test [6], 1100 nM.

For the origin of these results see patent US8492570B2, “2-substituted estra-1,3,5(10)-triene-3-yl sulfamate with an anti-tumor action” (Sterix Limited, priority 2003, dated 2013).
